Values after ≈ are worked out from the molar mass of the structure shown.
Columns and labels:
[1] = test system: cucumber downy mildew pathogenic fungi; assay: Test of toxicity of compound benziothiazolinone and epoxiconazol on cucumber downy mildew; format: in vivo; settings: for ATI (actual toxicity index): benziothiazolinone as standard = 100; for EC50: cucumber downy mildew, Table 4
Description: (§1) The incidence of whole cucumber leaves was investigated according to test grading level, and the disease index and the prevention and treatment effect were calculated.
(§2) The prevention and treatment effect was converted into probability values (y), the heights of the chemicals (μg/ml) were converted into logarithm values (x), the toxicity equation and the median inhibition concentration EC50 were calculated by the least square method, and the toxicity index level co-toxicity coefficient (CTC) of the chemicals was calculated according to the Sun Yunpei's method. Actual toxicity index(ATI)=(EC50 of the standard reagent/EC50 of the test reagent)×100 Theoretical toxicity index(TTI)=the toxicity index of chemicalA×the percentage of A in the mixture+the toxicity index of chemical B×the percentage of B in the mixture Co-toxicity coefficient(CTC)=[Actual toxicity index(ATI) of the mixture/Theoretical toxicity index(TTI) of the mixture][…]
4. Test of Toxicity of Compound Benziothiazolinone and Epoxiconazol on Cucumber Downy Mildew

[2] = test system: cucumber downy mildew pathogenic fungi; assay: Test of toxicity of compound benziothiazolinone and dithianon on cucumber downy mildew pathogenic fungi; format: in vivo; settings: for EC50: cucumber downy mildew, Table 1; for ATI (actual toxicity index): benziothiazolinone as standard = 100
Description: 1. Test of Toxicity of Compound Benziothiazolinone and Dithianon on Cucumber Downy Mildew Pathogenic Fungi
Subjects for Test: Cucumber Downy Mildew Pathogenic Fungi
as §1, §2

[3] = test system: cucumber downy mildew pathogenic fungi; assay: Test of toxicity of compound benziothiazolinone and iprodione on cucumber downy mildew; format: in vivo; settings: for EC50: cucumber downy mildew, Table 3; for ATI (actual toxicity index): benziothiazolinone as standard = 100
Description: as §1, §2
3. Test of Toxicity of Compound Benziothiazolinone and Iprodione on Cucumber Downy Mildew

[4] = test system: cucumber downy mildew pathogenic fungi; assay: Test of toxicity of compound benziothiazolinone and dimethomorph on cucumber downy mildew; format: in vivo; settings: for ATI (actual toxicity index): benziothiazolinone as standard = 100; for EC50: cucumber downy mildew, Table 2
Description: as §1, §2
2. Test of Toxicity of Compound Benziothiazolinone and Dimethomorph on Cucumber Downy Mildew

[5] = test system: oomycetes fungi; settings: formation stages of sporangiophores and oospores of oomycetes; cited from earlier work
[6] = Cucumis sativus, read-out: EC50

| Compound | ATI (actual toxicity index) [1] | EC50 [1] [µg/mL] | ATI (actual toxicity index) [2] | ATI (actual toxicity index) [3] | ATI (actual toxicity index) [4] | further results |
| --- | --- | --- | --- | --- | --- | --- |
| Fc1ccc([C@]2(Cn3cncn3)O[C@H]2c2ccccc2Cl)cc1 [Epoxiconazol] | 89.65 | 4.25 (≈ 12.9 µM) | – | – | – | – |
| N#Cc1sc2c(=O)c3ccccc3c(=O)c=2sc1C#N [Dithianon] | – | – | 60.1 | – | – | EC50 [2, 6]: 5.41 µg/mL (≈ 18.3 µM) |
| CC(C)NC(=O)N1CC(=O)N(c2cc(Cl)cc(Cl)c2)C1=O [Iprodione] | – | – | – | 72.34 | – | EC50 [3, 6]: 5.82 µg/mL (≈ 17.6 µM) |
| O=c1[nH]sc2ccccc12 [Benziothiazolinone] | 100.00 | 3.81 (≈ 25.2 µM) | 100.0 | 100.00 | 100.0 | EC50 [3]: 4.21 µg/mL (≈ 27.8 µM); EC50 [4]: 4.08 µg/mL (≈ 27 µM); EC50 [2]: 3.25 µg/mL (≈ 21.5 µM) |
| COc1ccc(C(=CC(=O)N2CCOCC2)c2ccc(Cl)cc2)cc1OC [Dimethomorph] | – | – | – | – | 63.9 | concentration at which inhibited [5]: 0.25 µg/mL; EC50 [4, 6]: 6.36 µg/mL (≈ 16.4 µM) |

— patent US9282744B2, “Synergistic fungicide composition” (JIANGSU HUIFENG AGROCHEMICAL CO., LTD., priority 2012, dated 2016)
